Laboratory results: BigSolDB 2.1

CC(=O)Oc1ccccc1C(=O)Nc1ncc([N+](=O)[O-])s1
solubility (mole fraction)
Details | 273.15 K | 278.15 K | 283.15 K | 288.15 K | 293.15 K | 298.15 K | 303.15 K | 308.15 K | 313.15 K
in 1,4-dioxane | – | – | – | 0.0102 | 0.0131 | 0.0167 | 0.0207 | 0.0254 | 0.0311
in 2-butanone | 0.00334 | 0.00496 | 0.0066 | 0.00859 | 0.0107 | 0.0131 | 0.0158 | 0.0191 | 0.0229
in DMF | 0.0637 | 0.0672 | 0.0711 | 0.0751 | 0.0797 | 0.0846 | 0.0901 | 0.097 | 0.104
in NMP | 0.0878 | 0.09 | 0.0925 | 0.0953 | 0.098 | 0.101 | 0.105 | 0.109 | 0.113
in acetonitrile | 0.00082 | 0.000924 | 0.00103 | 0.00115 | 0.00127 | 0.00141 | 0.00158 | 0.00178 | 0.00201
in ethanol | 0.000117 | 0.000147 | 0.000179 | 0.000211 | 0.000246 | 0.000285 | 0.000331 | 0.000385 | 0.00045
in ethyl acetate | 0.00185 | 0.00206 | 0.00229 | 0.00252 | 0.00276 | 0.003 | 0.0033 | 0.00362 | 0.00399
in isopropanol | 0.000162 | 0.000202 | 0.000243 | 0.000287 | 0.000333 | 0.000383 | 0.000436 | 0.000502 | 0.00058
in methanol | 0.000103 | 0.000126 | 0.00015 | 0.000177 | 0.000202 | 0.00023 | 0.000261 | 0.000298 | 0.000334
in n-butanol | 0.000176 | 0.000214 | 0.000257 | 0.000303 | 0.000354 | 0.000408 | 0.000471 | 0.000541 | 0.000617
in n-propanol | 0.000138 | 0.000173 | 0.000211 | 0.00025 | 0.00029 | 0.000336 | 0.00039 | 0.000453 | 0.000525
in toluene | 7.6e-05 | 9.9e-05 | 0.000123 | 0.000146 | 0.00017 | 0.000197 | 0.000225 | 0.000258 | 0.000291
